Data on 19 compounds can be found in patent publication US10189785B2, “Heterocyclic compound” (TAKEDA PHARMACEUTICAL COMPANY LIMITED, priority 2015, dated 2019).

As usually defined, the inhibition is the drop in the measured response relative to a control, in per cent.

Each structure is given as a SMILES string.

The target in the first assay is T1, SPT (SPT2-expressing membrane fraction: human SPT1, human SPT2 and human ssSPTa) (Homo sapiens, UniProt O15269+O15270).
T1 construct: Full-length human SPT1, human SPT2 and human ssSPTa used; made in house; host or cells: FreeStyle 293 cells (pcDNA3.1 vectors, cotransfection); crude membrane fraction used
T1 sequence (O15269 1-473): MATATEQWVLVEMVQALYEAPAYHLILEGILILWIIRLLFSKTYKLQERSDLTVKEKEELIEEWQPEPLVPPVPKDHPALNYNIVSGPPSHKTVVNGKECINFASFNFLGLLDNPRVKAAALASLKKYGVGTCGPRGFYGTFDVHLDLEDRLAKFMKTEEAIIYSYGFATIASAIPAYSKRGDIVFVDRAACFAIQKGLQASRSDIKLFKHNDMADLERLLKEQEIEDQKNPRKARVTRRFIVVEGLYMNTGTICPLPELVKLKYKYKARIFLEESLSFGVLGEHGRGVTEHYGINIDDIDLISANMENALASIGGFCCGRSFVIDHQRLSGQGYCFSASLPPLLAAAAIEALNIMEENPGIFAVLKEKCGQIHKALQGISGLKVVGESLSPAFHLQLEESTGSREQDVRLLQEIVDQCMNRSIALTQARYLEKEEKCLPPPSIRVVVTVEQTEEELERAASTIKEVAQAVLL
T1 sequence (O15270 1-562): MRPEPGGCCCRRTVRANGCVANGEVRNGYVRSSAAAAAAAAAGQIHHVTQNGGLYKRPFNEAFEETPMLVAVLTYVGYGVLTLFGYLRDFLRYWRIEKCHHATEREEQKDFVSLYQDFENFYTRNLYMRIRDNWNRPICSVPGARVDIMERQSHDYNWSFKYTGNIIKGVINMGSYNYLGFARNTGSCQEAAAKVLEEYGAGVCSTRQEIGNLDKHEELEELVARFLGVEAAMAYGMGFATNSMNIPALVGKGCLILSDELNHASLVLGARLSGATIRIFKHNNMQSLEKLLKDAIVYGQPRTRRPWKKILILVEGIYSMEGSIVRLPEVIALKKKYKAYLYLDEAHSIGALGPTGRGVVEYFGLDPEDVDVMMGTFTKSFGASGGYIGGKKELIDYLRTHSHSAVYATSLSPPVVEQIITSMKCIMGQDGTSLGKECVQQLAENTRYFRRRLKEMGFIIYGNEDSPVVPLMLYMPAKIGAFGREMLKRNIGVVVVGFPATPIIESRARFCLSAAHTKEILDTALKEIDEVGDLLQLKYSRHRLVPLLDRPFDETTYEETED
T1 sequence (Q969W0 1-71 partner): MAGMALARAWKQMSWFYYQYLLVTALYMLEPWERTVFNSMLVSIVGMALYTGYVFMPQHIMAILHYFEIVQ
As to the kind of experiment: SPT enzyme inhibition test (Test Example 1). Format: biochemical. The note with it: read-out: Rate of inhibition (%) at 1 μM. On the procedure: After culture for 3 days, the cells were recovered and frozen at −80° C. to obtain expressing cells. The frozen cells were suspended in a 50 mM Hepes buffer (pH 7.5) containing 250 mM sucrose, 5 mM ethylenediaminetetraacetic acid (EDTA), 5 mM dithiothreitol (DTT) and Complete, EDTA-free (Roche Applied Science, Penzberg, Upper Bavaria, Germany). The cells were disrupted (on ice, 20,000 rpm, 20 sec×2) using POLYTORON (Central Scientific Commerce, Inc.). After centrifugation at 2000 rpm (850×g) for 10 minutes, the supernatant was recovered. Subsequently, the supernatant was centrifuged at 40,000 rpm (186,010×g) for 60 minutes, and the supernatant was discarded. The pellets were suspended in a 50 mM Hepes buffer (pH 7.5) containing 5 mM EDTA, 5 mM DTT and Complete, EDTA-free, passed through a 40-μm cell strainer and stored at −80° C. The resultant was used as a SPT2-expressing membrane fraction. The protein concentration was determined using CBB Protein Assay with bovine serum albumin used as standards.
5 μL of each test compound was mixed with 10 μL of the 100 μg/mL SPT2-expressing membrane fraction using an assay buffer (100 mM Hepes (pH 8.0) containing 2.5 mM EDTA, 5 mM DTT and 0.01% fatty acid-free bovine serum albumin), and the mixture was left standing at room temperature for 60 minutes. Subsequently, 5 μL of a substrate solution containing 2 mM L-serine and 20 μM palmitoyl CoA was added thereto, and an enzyme reaction was carried out in a 384-well plate using 20 μL in total of the reaction system. After reaction at room temperature for 15 minutes, the reaction was terminated by the addition of 20 μL of a 2% aqueous formic acid solution. Subsequently, 40 μL of acetonitrile containing 600 nM C17-sphinganine (Avanti Polar Lipids, Inc., Alabaster, Ala., U.S.) was added thereto as an internal standard. The reaction sample was subjected to on-line solid-layer extraction using RapidFire 300 (Agilent Technologies Inc., Santa Clara, Calif., U.S.). […] Mass chromatograms were obtained using Analyst software (version 1.5.0, AB SCIEX). Their mass chromatogram areas were respectively calculated, and the rate of inhibition (%) by the test compound was calculated using an area ratio (the value of the reaction product was divided by the value of the internal standard).
`COc1ccc(C(=O)N2CC[C@@H](NC(=O)c3ccccc3OC(F)(F)F)[C@@H](N3CCCCC3)C2)cc1OC` (relative stereo) [Example 55B, N-(cis-1′-(3,4-Dimethoxybenzoyl)-1,3′-bipiperidin-4′-yl)-2-(trifluoromethoxy)benzamide]: the inhibition at 1 µM came to 95%. Same read-out and setting: as for `COc1cc(C(=O)N2CC[C@@H](NC(=O)c3ccccc3OC(F)(F)F)[C@H](N3CCCCC3)C2)cnc1OC` (relative stereo) [Example 253B, N-(trans-1′-((5,6-Dimethoxypyridin-3-yl)carbonyl)-1,3′-bipiperidin-4′-yl)-2-(trifluoromethoxy)benzamide], the figure is 97%.

Turning to `COc1ccc(C(=O)N2CC[C@@H](NC(=O)c3ccccc3Cl)[C@H](c3sccc3C)C2)cc1OC` (relative stereo) [Example 270B, 2-chloro-N-(trans-1-(3,4-dimethoxybenzoyl)-3-(3-methyl-2-thienyl)piperidin-4-yl)benzamide], the inhibition at 1 µM came to 89%. The same measure, in the same setting: for `COc1cc(C(=O)N2CC[C@@H](NC(=O)c3ccccc3OC(F)(F)F)[C@H](n3cccn3)C2)cnc1OC` (relative stereo) [Example 276B, N-(trans-1-((5,6-dimethoxypyridin-3-yl)carbonyl)-3-(1H-pyrazol-1-yl)piperidin-4-yl)-2-(trifluoromethoxy)benzamide] the value was 82%; for `COc1ccc(C(=O)N2CCC(NC(=O)c3ccccc3Cl)c3nn(C)cc32)cc1OC` (stereo not shown) [Example 1A, 2-Chloro-N-(4-(3,4-dimethoxybenzoyl)-2-methyl-4,5,6,7-tetrahydro-2H-pyrazolo[4,3-b]pyridin-7-yl)benzamide], 91%; for `COc1ccc(C(=O)N2CCC(NC(=O)c3ccccc3Cl)c3noc(C)c32)cc1OC` (stereo not shown) [Example 17A, 2-Chloro-N-[4-(3,4-dimethoxybenzoyl)-3-methyl-4,5,6,7-tetrahydro[1,2]oxazolo[4,3-b]pyridin-7-yl]benzamide], 84%. In the case of `COc1ccc(C(=O)N2CCC(NC(=O)c3ccccc3Cl)c3nscc32)cc1OC` (stereo not shown) [Example 30A, 2-Chloro-N-[4-(3,4-dimethoxybenzoyl)-4,5,6,7-tetrahydro[1,2]thiazolo[4,3-b]pyridin-7-yl]benzamide], the inhibition at 1 µM was found to be 93%. On the same count and under the same terms, as for `COc1ccc(C(=O)N2CCC(NC(=O)c3sccc3Cl)c3c2cnn3C)cc1OC` (stereo not shown) [Example 64A, 3-chloro-N-(4-(3,4-dimethoxybenzoyl)-1-methyl-4,5,6,7-tetrahydro-1H-pyrazolo[4,3-b]pyridin-7-yl)thiophene-2-carboxamide], the figure is 82%.

As to `COc1cc(C(=O)N2CC[C@@H](NC(=O)c3ncccc3C(F)(F)F)[C@@H](c3ccccc3)C2)n(C)n1` [Example 72B, N-((3S,4R)-1-((3-methoxy-1-methyl-1H-pyrazol-5-yl)carbonyl)-3-phenylpiperidin-4-yl)-3-(trifluoromethyl)pyridine-2-carboxamide], the inhibition at 1 µM came to 94%. Same read-out and setting: for `COc1ccc(C(=O)N2CCC(NC(=O)c3cnccc3C(F)(F)F)c3c2cnn3C)cc1OC` (stereo not shown) [Example 91A, N-(4-(3,4-dimethoxybenzoyl)-1-methyl-4,5,6,7-tetrahydro-1H-pyrazolo[4,3-b]pyridin-7-yl)-4-(trifluoromethyl)nicotinamide] the value was 94%; for `COc1ccc(C(=O)N2CCC(NC(=O)c3cccnc3C(F)(F)F)c3c2cnn3C)cc1OC` (stereo not shown) [Example 103A, N-(4-(3,4-dimethoxybenzoyl)-1-methyl-4,5,6,7-tetrahydro-1H-pyrazolo[4,3-b]pyridin-7-yl)-2-(trifluoromethyl)nicotinamide], 95%; for `COc1ccc(C(=O)N2CCC(NC(=O)c3ccccc3Cl)c3c(C)nsc32)cc1OC` (stereo not shown) [Example 117A, 2-Chloro-N-(7-(3,4-dimethoxybenzoyl)-3-methyl-4,5,6,7-tetrahydro[1,2]thiazolo[5,4-b]pyridin-4-yl)benzamide], 84%.

Take `COc1cc(C(=O)N2CC[C@@H](NC(=O)c3ccnn3C)[C@@H](c3ccccc3)C2)cnc1OC` [Example 144B, N-((3S,4R)-1-((5,6-dimethoxypyridin-3-yl)carbonyl)-3-phenylpiperidin-4-yl)-1-methyl-1H-pyrazole-5-carboxamide]: the inhibition at 1 µM worked out at 98%.

In the case of `COc1ccc(C(=O)N2CCC(NC(=O)c3ccccc3Cl)c3c(C)nn(C)c32)cc1OC` (stereo not shown) [Example 172A, 2-Chloro-N-(7-(3,4-dimethoxybenzoyl)-1,3-dimethyl-4,5,6,7-tetrahydro-1H-pyrazolo[3,4-b]pyridin-4-yl)benzamide], the inhibition at 1 µM worked out at 93%. On the same count and under the same terms, for `COc1ccc(C(=O)N2CCC(NC(=O)c3ccccc3Cl)c3ccc(Cl)nc32)cc1OC` (stereo not shown) [Example 217A, 2-Chloro-N-(7-chloro-1-(3,4-dimethoxybenzoyl)-1,2,3,4-tetrahydro-1,8-naphthyridin-4-yl)benzamide] the value was 102%.

A further assay concerns lung adenocarcinoma cell line HCC4006. Nature of the assay: HCC4006 cell growth inhibition test (Test Example 2). The class given is cell-based. As to conditions: Homo sapiens, 120 h; 1 μM test compound; HCC4006 cells, culture for 5 days, CellTiter-Glo; read-out: Rate of inhibition (%) at 1 μM. The procedure: A lung adenocarcinoma cell line HCC4006 (ATCC) was cultured using an RPMI-1640 medium (Wako Pure Chemical Industries, Ltd.) containing 10% fetal bovine serum and penicillin/streptomycin. 250 cells per well were inoculated into 40 μL of a medium in a 384-well culture plate. On the next day, 10 μL of each test compound was added to the cells. After culture for 5 days, the medium was discarded, and 30 μL of CellTiter-Glo Luminescent Cell Viability Assay solution (Promega Corp., Fitchburg, Wis., U.S.) was added to each well. Light emission signals were measured using EnVision (PerkinElmer, Inc., Waltham, Mass., U.S.).
The rate of inhibition (%) by the test compound was calculated according to the following expression: Rate of inhibition (%)=(1−(Count of the test compound−Blank)/(Control−Blank))×100
In the above expression, a count under compound non-addition conditions was indicated as a control, and a count under cell-free conditions was indicated as a blank.
Background: In ATP-based viability assays light output follows the ATP content of the culture.
`COc1ccc(C(=O)N2CCC(NC(=O)c3ccccc3Cl)c3c2cnn3C)cc1OC` (stereo not shown) [Example 2A, 2-Chloro-N-(4-(3,4-dimethoxybenzoyl)-1-methyl-4,5,6,7-tetrahydro-1H-pyrazolo[4,3-b]pyridin-7-yl)benzamide]: the inhibition at 1 µM was 36%. On to `COc1ccc(C(=O)N2CC[C@@H](NC(=O)c3ccccc3Cl)[C@@H](c3ccccc3)C2)cc1OC` [Example 2B, 2-chloro-N-((3S,4R)-1-(3,4-dimethoxybenzoyl)-3-phenylpiperidin-4-yl)benzamide], for which the inhibition at 1 µM is 55%. Still for that read-out and setting: as for `COc1ccc(C(=O)N2CC[C@@H](NC(=O)c3ccccc3Cl)[C@H](c3ccccc3)C2)cc1OC` [Example 3B, 2-chloro-N-((3R,4R)-1-(3,4-dimethoxybenzoyl)-3-phenylpiperidin-4-yl)benzamide], the figure is 44%; as for `COc1ccc(C(=O)N2CCC(NC(=O)c3ccccc3Cl)c3c2cnn3C(C)C)cc1OC` (stereo not shown) [Example 36A, 2-Chloro-N-(4-(3,4-dimethoxybenzoyl)-1-isopropyl-4,5,6,7-tetrahydro-1H-pyrazolo[4,3-b]pyridin-7-yl)benzamide], 47%.
